Assay results reported in paper PMC8765781, “A platform of assays for the discovery of anti-Zika small-molecules with activity in a 3D-bioprinted outer-blood-retina model” (PLoS ONE, 2022).
Where two headings read alike, the source gives them in different places.

Key:
[1] = tested on: mCherry-ZIKV in human neuronal progenitor cells; assay: microbe, parasite or virus in culture; assay type: cell-based, Zika virus; details: for AC50 / IC50: Zika virus, Neuronal progenitor cell; for IC50: read-out: NPC (ZIKV Antiviral Assays), IC50
[2] = in vitro; details: human
[3] = tested on: ZIKV-mCherry (Cambodian strain FSS13025); assay: microbe, parasite or virus in culture; assay type: cell-based, Zika virus; details: for AC50: Zika virus, Vero
[4] = in vitro; details: human; remark: listed apart in the source
[5] = tested on: wild-type ZIKV (Ugandan MR766 strain) in Vero cells; assay: ZIKV cytopathic effect (CPE) inhibition qHTS assay, CellTiter-Glo readout; assay type: cell-based, Zika virus; details: for AC50 / IC50: Zika virus, Vero; for IC50: 48 h, read-out: ZIKV-infection (CPE, ZIKV Antiviral Assays), IC50
[6] = tested on: caspase-3 activity induced by ZIKV in Vero cells; assay: cells; assay type: cell-based; details: Zika virus, Vero, 48 h, read-out: Caspase 3 (ZIKV Antiviral Assays), IC50
[7] = in vitro; details: African green monkey; for CC50 at 48 h: Vero cells
[8] = tested on: ZIKV-RLuc (Cambodian strain FSS13025); assay: microbe, parasite or virus in culture; assay type: cell-based, Zika virus; details: Zika virus, Vero, 48 h, read-out: Rluc-ZIKV (ZIKV Antiviral Assays), IC50
[9] = tested on: WNV (Kern515/WN02)
[10] = tested on: DENV (Dengue virus type 2, strain New Guinea C)
[11] = tested on: ZIKV
[12] = tested on: YFV (YFV 17D)
[13] = read-out: Log AC50 (M) (converted)

Row | Compound | CC-v2 (curve class) [1] | Efficacy [1] | Max Resp [1] | AC50 [1] [M] | AC50 [1, 13] [M] | IC50 [1] [µM] | CC50 at 24 h [2] [µM] | CC-v2 (curve class of the dose response curve) [3] | Efficacy (difference between neutral response and maximum compound response) [3] | Max Resp (difference between neutral response and response at highest compound concentration) [3] | AC50 [3] [M] | AC50 [3, 13] [M] | CC50 [4] [µM] | Efficacy [5] | AC50 [5] [M] | IC50 [5] [µM] | AC50 [5, 13] [M] | IC50 [6] [µM] | CC50 at 48 h [7] [µM] | IC50 [8] [µM] | further results
1 | Nc1ccn([C@@H]2O[C@H](CO)[C@@H](O)C2(F)F)c(=O)n1 [NCGC00168784-08, gemcitabine, reference compound] | -1.2 | -65.573 | -52.766 | 6.31e-06 | 6.31e-06 | 6.31 | 16.3 | -1.2 | -61.697 | -99.896 | 2.67e-09 | 2.67e-09 | > 30 | -24.938 | 9.2e-06 | 9.2 | 9.2e-06 | > 48 | > 50 | 0.02 | Antiviral activity in human NPC [1]: moderate antiviral activity
2 | C=C1CCC2[C@](C)(CCC[C@]2(C)C(=O)O)[C@H]1CC/C(C)=C/C(=O)OC (stereo partly shown) [NCGC00168922-02] | 4 | -21.467 | -17.835 | – | – | 11.2 | 13.3 | -1.4 | -50.999 | -55.843 | – | – | > 30 | -63.179 | 4.04e-07 | 0.4 | 4.04e-07 | 7.24 | > 50 | 0.07 | WHV active Yes/No [9]: No; DENV active Yes/No [10]: No; ZIKV active Yes/No [11]: No; YFV active Yes/No [12]: No
3 | CCC[S+](=O)([O-])Nc1ccc(F)c(C(=O)c2c[nH]c3ncc(-c4ccc(Cl)cc4)cc23)c1F [NCGC00250399-05] | 4 | -22.524 | -6.687 | – | – | 35.5 | – | 5 | 0 | -69.344 | – | – | – | -40.165 | 1.46e-06 | 1.46 | 1.46e-06 | 8.31 | – | 9.28 | SI value WHV (CC50/EC50) [9]: 2; Selectivity Index WHV (CC50/EC50) [9]: 2; WHV active Yes/No [9]: No; CC50 [2]: > 30 µM; DENV active Yes/No [10]: Yes; SI value DENV (CC50/EC50) [10]: 4.3; Selectivity Index DENV (CC50/EC50) [10]: 4; SI value ZIKV (CC50/EC50) [11]: 14; Selectivity Index ZIKV (CC50/EC50) [11]: 14; ZIKV active Yes/No [11]: Yes; YFV active Yes/No [12]: No; CC50 [7]: > 50 µM
4 | COc1cccc(-n2nc(C(=O)O)cc2-c2ccc(C3CCCCC3)c(Cl)c2)c1 [NCGC00379183-01] | -3 | -112.723 | -95.876 | 5.01e-05 | 5.01e-05 | – | – | 5 | -42.035 | -100.305 | 1.68e-05 | 1.68e-05 | 25.1 | -41.012 | 2.91e-05 | 29.1 | 2.91e-05 | 26.3 | > 50 | 18.5 | CC-v2 (curve class classification of the dose response curve) [5]: -3
